# Assay results published in US8916132B2, “Benzimidazole-derived compounds use as markers in the case of neurodegenerative diseases” (Servicios Cientificos Neuroinnovation Ltda, priority 2008, dated 2014).
# Where two headings read alike, the source gives them in different places.
# Columns and labels:
# [1] = Partition coefficient octanol / pH 7.4 tampon; conditions: for LogP Coefficient: octanol / pH 7.4 tampon, 25° C.; for CNS LogP: partition coefficient in relation to ability to cross the HEB
# Experimental: (§1) The analyzed parameters were: specific permeability (Sp), this is an indicator of the compound's ability to cross the hematoencephalic barrier (HEB) by passive diffusion, and the partition coefficient (LogP), which corresponds to the partition coefficient of the compound between Octanol and the pH 7.4 phosphate tampon, which is a predictive element for the compound's penetration of the HEB.
# Briefly, the partition coefficient (log Po/w) was determined in a pH 7.4 tampon solution, adjusted with 0.1 M sodium hydroxide. The organic phase utilized octanol saturated with the pH 7.4 tampon solution. A 1 mg/mL solution of the drug in methanol was prepared. Dilutions with concentrations ranging from 0.02 to 0.4 mg/mL were prepared from these solutions. Then […] portions were taken from each of these previously prepared stock solutions in 25 mL volumetric flasks, with the volume completed with the tampon pH 7.4. 25 ml of octanol where then measured and placed in three decantation funnels, with the previously prepared solutions added to each, mixing both phases by vigorous agitation during two minutes. […] Both phases are separated once equilibrium had been reached. The aqueous phase was centrifuged during 3 minutes to ensure complete separation of the phases. The entire process was carried out at a temperature of 25° C. The quantification was carried out with a UVN spectrophotometer.
# [2] = rat, in vivo, iv
# [3] = system: neurofibrillary tangles (NFTs); test: Fixation in neurofibrillary tangles in postmortem brain sections of Alzheimer patients; conditions: co-localization with PHF-1 antibody, tritiated or fluorescent marking
# Experimental: This evaluation was carried out by means of immunohistochemistry with antibodies specific for senile plaque, 6E10 antibody reactive against 6-13 residues of Aβ peptide, and the tau-specific PHF1 antibody.
# In short, postmortem brains of patients with a proven clinical diagnosis of Alzheimer's Disease are set in formalin at 10%, with slices with sections varying from 5 to 200 μm made, preferably with 20 μm. These slices are incubated in benzimidazoles marked pursuant to the present invention and afterwards incubated with the specific 6E10 and PHF1 antibodies to determine the co-localization of the marker in the tau protein structures of the cerebral sections under study.
# For practical purposes and as part of the examples, the co-localization of marked tau with fluorophore conjugate antibodies with the localization of the fluorescently marked drug is analyzed. The co-localization of both drugs with the tau aggregated structures in the hippocampus region, entorhinal cortex and nucleous of Meynert in the postmortem brains with Alzheimer's Disease was reviewed.
# [4] = in vivo; conditions: male, C2 albino, rat, iv
# [5] = in vitro
# Description: as §1
# The Parallel Artificial Membrane Permeability assay (PAMPA) is based on the ability of compounds to diffuse from a donor compartment through a Polyvinylidene Fluoride Membrane Filter (PVDF) covered with a phosphatidylcholine solution at 20% towards a second acceptor compartment, which is analyzed. […] The quantification was carried out by means of spectrophotometry, using pans 1 mm in length and with a capacity of 300 uL.
# [6] = system: human tau protein aggregates (PHFs); test: ^3H-Astemizole saturation binding to tau protein aggregates; conditions: for Bmax/Kd Index: Tau Protein Aggregates (PHF)
# [7] = target: Aβ1-42 Peptide Aggregates (Homo sapiens, UniProt P05067); test: ^3H-Astemizole saturation binding to Aβ1-42 peptide aggregates
# [8] = target: Aβ Fibers (Homo sapiens, UniProt P05067); conditions: Okamura et al., 2005; cited from earlier work
# [9] = target: Tau Filaments in Vitro (Homo sapiens, UniProt P10636); test: ^3H-Astemizole displacement test, tau filaments in vitro
# [10] = In vivo pharmacokinetics in blood and cerebral tissue (HPLC/UV); conditions: male, C2 albino, rat, iv, astemizole 16 mg/kg, lansoprazole 8 mg/kg
# [11] = target: Alzheimer PHF (Homo sapiens, UniProt P10636); test: ^3H-Astemizole displacement test, Alzheimer PHF
# [12] = target: mGluR7 (Homo sapiens, UniProt Q14831); conditions: Yanamala et al., 2008; cited from earlier work
# [13] = saturation test, Tau Protein Aggregates
# Sequence of Aβ1-42 Peptide Aggregates (P05067 672-713): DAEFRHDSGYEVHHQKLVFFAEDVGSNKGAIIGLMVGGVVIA
# Sequence of mGluR7 (Q14831 35-915): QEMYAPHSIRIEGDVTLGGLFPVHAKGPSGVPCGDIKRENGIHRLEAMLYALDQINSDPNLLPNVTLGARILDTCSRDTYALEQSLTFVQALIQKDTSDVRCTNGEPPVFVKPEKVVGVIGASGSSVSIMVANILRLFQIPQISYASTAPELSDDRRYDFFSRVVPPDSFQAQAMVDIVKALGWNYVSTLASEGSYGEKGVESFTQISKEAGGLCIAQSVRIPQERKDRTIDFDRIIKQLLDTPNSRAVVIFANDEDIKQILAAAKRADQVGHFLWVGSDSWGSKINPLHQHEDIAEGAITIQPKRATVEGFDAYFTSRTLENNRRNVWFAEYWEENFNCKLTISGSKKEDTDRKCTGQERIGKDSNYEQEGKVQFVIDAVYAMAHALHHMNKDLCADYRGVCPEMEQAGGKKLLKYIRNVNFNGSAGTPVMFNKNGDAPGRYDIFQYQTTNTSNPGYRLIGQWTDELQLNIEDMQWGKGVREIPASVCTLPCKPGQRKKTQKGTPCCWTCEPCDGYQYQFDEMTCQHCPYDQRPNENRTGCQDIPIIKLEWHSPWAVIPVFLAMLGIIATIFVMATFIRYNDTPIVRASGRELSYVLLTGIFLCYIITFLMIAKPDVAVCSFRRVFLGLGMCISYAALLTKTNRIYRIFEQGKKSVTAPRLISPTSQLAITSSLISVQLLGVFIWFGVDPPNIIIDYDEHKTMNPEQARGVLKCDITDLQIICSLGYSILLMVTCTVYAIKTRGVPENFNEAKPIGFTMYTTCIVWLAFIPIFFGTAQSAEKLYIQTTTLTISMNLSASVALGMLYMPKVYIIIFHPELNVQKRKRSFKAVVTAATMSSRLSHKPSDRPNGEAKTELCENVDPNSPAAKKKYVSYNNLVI
# Sequence of Alzheimer PHF (P10636 623-758 limits assumed): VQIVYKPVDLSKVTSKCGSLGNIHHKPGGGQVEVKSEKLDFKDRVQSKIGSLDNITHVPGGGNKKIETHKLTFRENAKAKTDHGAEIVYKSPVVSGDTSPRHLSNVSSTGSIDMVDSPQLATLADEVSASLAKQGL
# Sequence of Aβ Fibers (P05067 672-713 limits assumed): as the sequence (P05067 672-713) above
# Sequence of Tau Filaments in Vitro (P10636 1-441 isoform P10636-8): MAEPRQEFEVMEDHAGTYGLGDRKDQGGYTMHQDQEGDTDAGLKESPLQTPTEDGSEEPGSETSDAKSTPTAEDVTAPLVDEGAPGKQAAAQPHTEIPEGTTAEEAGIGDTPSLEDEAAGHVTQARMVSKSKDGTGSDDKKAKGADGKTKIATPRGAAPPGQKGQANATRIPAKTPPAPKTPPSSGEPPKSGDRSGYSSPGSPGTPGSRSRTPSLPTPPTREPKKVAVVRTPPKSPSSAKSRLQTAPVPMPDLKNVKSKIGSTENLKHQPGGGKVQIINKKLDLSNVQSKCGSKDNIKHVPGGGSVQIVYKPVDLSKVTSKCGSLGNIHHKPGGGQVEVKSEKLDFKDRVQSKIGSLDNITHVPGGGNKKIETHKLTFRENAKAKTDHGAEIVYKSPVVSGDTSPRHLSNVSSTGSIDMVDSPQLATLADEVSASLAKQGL
smiles,measurement,setting,value
COc1ccc(CCN2CCC(Nc3nc4ccccc4n3Cc3ccc(F)cc3)CC2)cc1 [Astemizole],LogP Coefficient,[1],5.57
same,CNS LogP,[1],Favorable
same,average life in plasma compared with brain,[2],less than in the brain
same,marking of tau aggregates / NFTs in postmortem AD brain sections,[3],bond to the NFTs structures
same,marking of tau aggregates / NFTs in postmortem AD brain sections,[3]; listed as astemizole,efficiently and selectively mark those sectors positive for tau
same,Tmax,[4]; maximum concentration (Tmax) in blood,28 min
same,Tmax,[4]; maximum concentration (Tmax) in the brain,55 min
same,CNS Transport,[5]; PAMPA,Positive
same,Papp,[5]; PAMPA,147 ×10⁻⁶ cm/s
same,Bmax/Kd Index,[6],3.316
same,Bmax/Kd Index,[7],0.057
CNc1ccc(/C=C/c2nc3ccc(OCCF)cc3o2)cc1 [BF168],Ki,[8],6.4 nM
[3H]C([3H])([3H])Oc1ccc(CCN2CCC(Nc3nc4ccccc4n3Cc3ccc(F)cc3)CC2)cc1 [^3H-Astemizole],Bmax/Kd Index,[6],3.316
same,binding affinity to tau protein aggregate forms compared with Aβ,"[6]; at low concentrations, FIG. 7",greater binding affinity to tau protein aggregate forms than to Aβ
same,Bmax,[6]; [13],13.07 nM
same,Bmax/Kd Index,[7],0.057
same,Bmax,[7]; saturation test,0.12 pmol/nmol Aβ1-42
Cc1c(OCC(F)(F)F)ccnc1C[S+]([O-])c1nc2ccccc2[nH]1 (centres unmarked) [Lansoprazole],Ki,[9],2.7 nM
same,persistency in the encephalon / brain,"[2]; male, C2 albino",at least 3 hours
same,average life in plasma compared with brain,[2],less than in the brain
same,marking of tau aggregates / NFTs in postmortem AD brain sections,[3],bond to the NFTs structures
same,marking of tau aggregates / NFTs in postmortem AD brain sections,[3]; listed as Lansoprazol,fluorescent staining of Tau protein aggregates
same,marking of tau aggregates / NFTs in postmortem AD brain sections,[3]; listed as lansoprazole,efficiently and selectively mark those sectors positive for tau
same,Tmax,"[10]; brain (cerebral tissue), maximum concentration (Tmax) in the brain, cerebral tissue",37 min
same,Tmax,"[10]; whole blood (intracardiac), maximum concentration (Tmax) in blood, intracardiac blood",30 min
same,Ki,[11],833 nM
same,CNS Transport,[5]; PAMPA,Positive
same,Coefficient (Sp) specific permeability,[5]; PAMPA,3.63E−05
c1ccc(C(NCCNC(c2ccccc2)c2ccccc2)c2ccccc2)cc1 [AMN82],Binding Energies Autodock,[12],-7.56 kcal/mol
COc1ccc(CCN2CCC(Nc3nc4ccccc4n3Cc3ccc(F)cc3)CC2)cc1 [^3H-Astemizole],Kd,[6]; [13],3.94 nM
same,Kd,[7]; saturation test,2.1 nM
CCCC(C)C1(CC)C(=O)NC(=S)NC1=O (centres unmarked) [Thiopental],LogP Coefficient,[1],1.4
same,Papp,[5],17 ×10⁻⁶ cm/s
Cc1c(OCC(F)(F)[18F])ccnc1C[S+]([O-])c1nc2ccccc2[nH]1 (centres unmarked) [^18F-Lansoprazole],brain/blood bio-distribution relation,at 30 minutes,0.23
same,reaches the brain,at 30 minutes,0.3%
same,brain/blood bio-distribution relation,at 60 minutes,1.27
same,reaches the brain,at 60 minutes,0.14%
C[N+]12CCC(CC1)C(OC(=O)C(O)(c1ccccc1)c1ccccc1)C2 (centres unmarked) [Clidinium Bromide],LogP Coefficient,[1],−0.092
same,CNS LogP,[1],Unfavorable
same,CNS Transport,[5],Negative
same,Papp,[5],0.029 ×10⁻⁶ cm/s
